Reference: US20160067211A1, “PHARMACEUTICAL COMPOSITION” (Eberhard Karls Universitaet Tuebingen Medizinische Fakultaet, priority 2013, published 2016)

Key:
[1] = tested on: primary human fibroblasts (FF868); assay: MUH proliferation assay, fibroblasts; assay type: cell-based; details: 6-PN, 8-PN 0.1 μM to 100 μM; TSA, SAHA 100 μM
Procedure: FIG. 5: real time cell monitoring of BLM and SK-MEL-28 melanoma cells treated with 6-PN and 8-PN. (A) BML and SK-MEL-28 cells were treated 24 hours after seeding with different concentrations of 6-PN and 8-PN (20 μM, 50 μM and 100 μM) over a 104 hour time period. The cellular impedance was measured over the entire observation time using the xCELLigence™ SP system and is depicted by the cell index (CI). All CI-values were normalized shortly before the treatment started. […] As a positive control, Triton X-100 0.1% was used to induce cell death. Shown are the mean±SD of three independent experiments, each performed in triplicates (B, C). […] Shown are the mean±SD; the experiments were performed in quadruplicates. (D) The MUH proliferation assay was repeated unter the same treatment conditions on primary human fibroblasts (FF868) and melanocytes (HEM1).
The cells were seeded in triplicates in 96-well plates at a density of 2,500 cells per well in 50 μl medium (5×10^4 cells per milliliter). After 24 hours, the medium was replaced by medium containing 6-PN, 8-PN (dissolved in DMSO), TSA (dissolved in EtOH) or SAHA (dissolved in DMSO) at the concentrations to be tested with or without the addition of the necrosis inhibitor IM-54 at 5 μM (Calbiochem, Darmstadt, Germany). Cells treated with culture medium without or with DMSO served as controls. The assay was started following an incubation of 24 hours. […] Plates were incubated at 37° C. for 1 hour and measured in a Fluoroskan II (Lab Systems, Helsinki, Finland) with a […]. The intensity of fluorescence indicates the number of viable cells in the wells.
Next it was asked whether the PNs also influence the proliferation of benign cells. To this end, human fibroblasts (FF) and foreskin melanocytes (HEM1) were treated with the same concentrations of 6-PN and 8-PN, and proliferation was assessed using the proliferation assay as described above.

[2] = tested on: cleaved caspase-3 in SK-MEL-28 melanoma cells; assay: Western blot for cleaved caspase-3; assay type: cell-based, human; details: SK-MEL-28, 100 μM
Procedure: Western blot analysis of SK-MEL-28 melanoma cells treated with 100 μM of 6-PN, 8-PN, SAHA or TSA. EtOH and DMSO were applied as controls.
The following antibodies were used: Anti-Vinculin and Anti-Actin (1:5000, Sigma-Aldrich), Anti-Acetyl-Histon H3 (1:5000, Millipore, Billerica, USA), Anti-Caspase-3 (1:1000), Anti-AKT, Anti-pAKT, Anti-ERK, Anti-pERK, […], Anti-p70S6 Kinase, and Anti-pS6 protein (1:1000), all from Cell Signaling, Frankfurt, Germany), Anti-LC3 (1:5000, Sigma-Aldrich).
To further analyze the type of cell death induced by 6-PN and 8-PN, western blot analyses of SK-MEL-28 melanoma cells were performed 1, 2, 4, 12 and 24 hours after the treatment with 100 μM 6-PN and 8-PN. […] Upon PN treatment an inconsistent expression of oncogenic AKT and phospho-AKT (pAKT) was detected. […] Thus, there was an obvious discrepancy between the expression of pAKT and pS6P. Therefore it was first also looked for the expression of P70S6 kinase and its phosphorylated form. […] Therefore it was next asked whether the S6P could be phosphorylated by a different mechanism. In this respect, activated ERK can phosphorylate the p90 ribosomal S6 kinase (pP90). pP90 also phosphorylates the S6P (in addition to the P70S6 kinase). Since the pP70S6 kinase was absent in the used cells (SK-MEL-28 and BLM), it was hypothesized that the phosphorylation of the S6P was conducted via the pERK/pP90 pathway, independent from the P70S6 signalling. This hypothesis was supported by the parallel down-regulation of the bands for pP90 (Thr359/Ser363) and pS6P 12 hours after the treatment with 6-PN, and the reappearance of both bands after 24 hours (FIG. 8). […] The western blot experiments were repeated with BLM cells under the same treatment conditions and yielded similar results (not shown).

[3] = tested on: human HDAC enzymes HDAC1-HDAC11; assay: HDAC inhibition profiling (Fluor de Lys); assay type: biochemical; details: 100 μM, HDAC1-HDAC11, 1% DMSO
Procedure: FIG. 2: In silico docking analysis with 6-PN and 8-PN illustrates the inhibitory potential on human-derived HDACs of class I and II. (A) Results of the in silico docking analysis of 6-PN and 8-PN with crystal structures of HDAC2 (class I) and HDAC4 (class II). […] Both molecules are predicted to interact with the zinc ion as well as other residues of the catalytic center. Docking analyses of 6-PN and 8-PN in the individual HDAC binding pockets were performed using GOLD (version 4.1.2) and MOE (version 2009.10). (B) Overall HDAC inhibition in cellular extracts of the human cell line HeLa by increasing concentrations of 6-PN and 8-PN (5 μM, 10 μM, 20 μM, 50 μM and 100 μM). As reference inhibitor 100 μM SAHA was used. Every concentration was tested three times in triplicates. Shown are the mean±SD. (C) Specific fluometric profiling assay using recombinant human HDACs of classes I, II and IV. Specific inhibition values were generated for the treatment with 100 μM 6-PN and 8-PN. […]
The human HDAC profiling assay was performed on the basis of the Fluor de Lys™ technology by Scottish Biomedical, Glasgow, United Kingdom. The percentage inhibition values of 100 μM of 6-PN and 100 μM of 8-PN against the human HDAC enzymes HDAC1, HDAC2, HDAC3, HDAC4, HDAC5, HDAC6, HDAC7, HDAC8, HDAC9, HDAC10, and HDAC11 were determined. […]

[4] = tested on: prostate cancer cell line DU145; details: DU145 in vitro; cited from earlier work
[5] = tested on: breast cancer cells MCF-7; details: cited from earlier work

CC(C)=CCc1c(O)cc(O)c2c1OC(c1ccc(O)cc1)CC2=O (centres unmarked) [8-PN, 5,7-Dihydroxy-2-(4-hydroxy-phenyl)-8-(3-methyl-but-2-enyl)-chroman-4-one]
fibroblast proliferation [1]: hardly affected | band for cleaved caspase-3 [2]: no additional band | inhibition of HDAC activity on all tested human HDACs [3]: strongly inhibited | antiproliferative effects [4]: antiproliferative effects | effects on breast cancer cells compared with 17β-Estradiol [5]: imitates the effects of 17β-Estradiol
